Entries after “also recorded” stand apart in the source; their conditions may differ.
Experiments:
[1] = Mouse pharmacokinetic test, oral gavage; assay type: in vivo, male ICR mice; conditions: summary statement; listed as compound of the present disclosure
Procedure: Male ICR mice (20 to 25 g) were used, and fasted overnight. Three mice were taken and orally administered by gavage (10 mg/kg). Blood was collected before the administration, and at 15 min, 30 min, 1 h, 2 h, 4 h, 8 h, and 24 h after the administration. 6,800 g of the blood samples were centrifuged at 2 to 8 °C for 6 min, and plasma was collected and stored at −80 °C The plasma at each time point was taken and added with an acetonitrile solution containing internal standard in 3 to 5 times the amount, vortexed and mixed for 1 min, and centrifuged at 13,000 rpm/min at 4 °C for 10 min. The supernatant was collected, added with water in 3 times the amount, and mixed. An appropriate amount of the mixture was taken for LC-MS/MS analysis. The main pharmacokinetic parameters were analyzed using WinNonlin 7.0 software with non-compartmental model.

[2] = Human liver microsome stability; assay type: in vitro ADME
Procedure: The human liver microsome stability test was performed by incubating the compound and human liver microsomes in vitro. First, the compound to be tested was prepared into a 10 mM stock solution in DMSO solvent, and then the compound was diluted to 0.5 mM with acetonitrile. Human liver microsomes (Corning) were diluted with PBS into a microsome/buffer solution, and the solution was used to dilute 0.5 mM compound into a working solution, in which the concentration of the compound was 1.5 μM, and the concentration of human liver microsomes was 0.75 mg/mL. A deep-well plate was taken, 30 μL of the working solution was added per well, and then 15 μL of pre-heated 6 mM NADPH solution was added thereto to initiate a reaction, and the reaction was incubated at 37 °C At 0, 5, 15, 30, and 45 min of the incubation, 135 μL of acetonitrile was added to the corresponding wells to terminate the reaction. After the reaction was terminated with acetonitrile at the last time point of 45 min, the deep-well plate was vortexed for 10 min (600 rpm/min), and then centrifuged for 15 min. After centrifugation, the supernatant was collected, and added with purified water in a ratio of 1:1 to perform LC-MS/MS detection. A ratio of a peak area of compound to a peak area of internal standard at each time point was obtained, and the peak area ratios of the compound at 5, 15, 30, and 45 min were compared with the peak area ratio at 0 min to calculate the remaining percentage of the compound at each time point. T1/2 was calculated by using GraphPad 5 software.

[3] = system: NCI-H1975 tumor; experiment: In vivo efficacy on NCI-H1975 non-small cell lung cancer (in combination with osimertinib); design: species or system mice

remaining at 0.5 h ([2]; human liver microsomes, 30 min, 37 °C, NADPH, read-out: Remaining percentage of compound after incubation for 30 min): 98.7%
hepatic metabolic stability ([2]; summary statement): good hepatic metabolic stability
metabolism in the human body ([2]; summary statement): slow metabolism in the human body
SMILES: Cc1nc(N[C@H](C)c2cccc(S(F)(F)(F)(F)F)c2)c2cn(C3(CF)CC3)c(=O)cc2n1 [compound of formula I, (R)-6-(1-(fluoromethyl)cyclopropyl)-2-methyl-4-((1-(3-(pentafluorosulfanyl)phenyl)ethyl)amino)pyrido[4,3-d]pyrimidin-7(6H)-one]
pharmacokinetic properties / exposure [1]: high exposure; also recorded: excellent pharmacokinetic properties
average tumor volume at the end of the treatment vs single-drug group of osimertinib ([3]; compound I-1 7.5 mg/kg BID or 25 mg/kg BID + osimertinib 1 mg/kg QD): significantly reduced, and the difference is statistically significant
synergistic effect of combined administration ([3]; compound I-1 25 mg/kg BID + osimertinib 1 mg/kg QD): synergistic effect
anti-tumor efficacy of combination with osimertinib vs single-drug administration ([3]; in combination with osimertinib): significantly better than that of single-drug administration

— US20260337190A1, “CRYSTAL FORM OF PYRIDINOPYRIMIDINONE COMPOUND, ACID SALT THEREOF, CRYSTAL FORM OF ACID SALT THEREOF, AND USE” (Wuhan Humanwell Innovative Drug Research and Development …, priority 2022, published 2026)
